≈ marks a conversion by molar mass, not a printed value. Read-outs that look alike come from different tables or passages of the source.
What was measured:
B. anthracis Vollum1B = test: microbe, parasite or virus in culture; type: cell-based; conditions: Bacillus anthracis
B. anthracis V770 = test: microbe, parasite or virus in culture; type: cell-based; conditions: Bacillus anthracis
S. aureus MRSA5 = test: microbe, parasite or virus in culture; type: cell-based; conditions: Staphylococcus aureus
E. faecium 494 = test: microbe, parasite or virus in culture; type: cell-based; conditions: Enterococcus faecium
E. faecalis 29212 = test: microbe, parasite or virus in culture; type: cell-based; conditions: Enterococcus faecalis
CHO-K1 = conditions: Chinese hamster
S. pneumoniae 157E [1] = system: S. pneumoniae 157E; parameters: species or system mice; conditions: mouse, in vivo
COS-1 = conditions: African green monkey
S. pneumoniae PBS1339 = system: S. pneumoniae PBS1339; parameters: species or system mice; conditions: mouse, in vivo
S. pneumoniae 700905 [2] = test: microbe, parasite or virus in culture; type: cell-based; conditions: Streptococcus pneumoniae
B. anthracis Ame = test: microbe, parasite or virus in culture; type: cell-based; conditions: Bacillus anthracis
B. anthracis Sterne = test: microbe, parasite or virus in culture; type: cell-based; conditions: Bacillus anthracis
S. pneumoniae 700905 [3] = system: S. pneumoniae 700905; parameters: species or system mice; conditions: mouse, in vivo
protein synthesis = conditions: cited from earlier work
B. cereus 97/4144 = test: microbe, parasite or virus in culture; type: cell-based; conditions: Bacillus cereus
S. aureus RN4250 = test: microbe, parasite or virus in culture; type: cell-based
B. cereus 95/3032 = test: microbe, parasite or virus in culture; type: cell-based; conditions: Bacillus cereus
B. anthracis V770NPIR = type: cell-based
B. anthracis panel = test: microbe, parasite or virus in culture; type: cell-based; conditions: Bacillus anthracis
B. cereus 98/2658 = test: microbe, parasite or virus in culture; type: cell-based; conditions: Bacillus cereus
S. pneumoniae 157E [4] = test: microbe, parasite or virus in culture; type: cell-based; conditions: Streptococcus pneumoniae
[5] = system: Protein synthesis of S. aureus RN450; test: microbe, parasite or virus in culture; type: cell-based; conditions: Staphylococcus aureus
B. cereus 98/2620 = test: microbe, parasite or virus in culture; type: cell-based; conditions: Bacillus cereus
S. aureus RN450 = test: microbe, parasite or virus in culture; type: cell-based; conditions: Staphylococcus aureus
[6] = system: Peptidoglycan synthesis of S. aureus RN450; test: microbe, parasite or virus in culture; type: cell-based; conditions: Staphylococcus aureus
16S rRNA = conditions: cited from earlier work

`CN(C)c1cc(CN2CCC(F)(F)CC2)c(O)c2c1C[C@H]1C[C@H]3[C@H](N(C)C)C(O)=C(C(N)=O)C(=O)[C@@]3(O)C(O)=C1C2=O` [Compound H] showed an MIC (B. anthracis Vollum1B) of under 0.03 µg/mL, an MIC (B. anthracis V770) of under 0.03 µg/mL and an MIC (S. aureus MRSA5) of 0.35 µg/mL (≈ 0.593 µM). It also gave an MIC (E. faecium 494) of 0.5 µg/mL (≈ 0.847 µM), an MIC (E. faecalis 29212) of 0.5 µg/mL (≈ 0.847 µM) and a Tox50 (CHO-K1) of over 100 µg/mL. The “IV and PO efficacy in words” value (S. pneumoniae 157E [1]) was “exhibits IV and PO efficacy”, the PD50 (S. pneumoniae 157E [1]; iv) was 1.1 mg/kg and the PD50 (S. pneumoniae 157E [1]; po) was 5 mg/kg. The “oral activity in words” value (S. pneumoniae 157E [1]; po) was “exhibited oral activity”, the Tox50 (COS-1) was over 100 µg/mL and the “efficacy in model of lung infection in words” value (S. pneumoniae PBS1339) was “efficacious”. The PD50 (S. pneumoniae PBS1339; iv) was under 5.0 mg/kg, the PD50 (S. pneumoniae PBS1339; po) was 3.6 mg/kg and the MIC (S. pneumoniae 700905 [2]) was 0.06 µg/mL (≈ 0.102 µM). It also gave an MIC (B. anthracis Ame) of under 0.03 µg/mL, an MIC (B. anthracis Sterne) of under 0.03 µg/mL and a PD50 (S. pneumoniae 700905 [3]; iv) of 2.2 mg/kg. For the same molecule, the PD50 (S. pneumoniae 700905 [3]; po) was 12.7 mg/kg.

In the case of `C[C@H]1c2cccc(O)c2C(=O)C2=C(O)[C@]3(O)C(=O)C(C(N)=O)=C(O)[C@@H](N(C)C)[C@@H]3[C@@H](O)[C@@H]21` [Doxycycline, reference compound], the “inhibition of protein synthesis in words” value (protein synthesis) is given as “potent inhibitors of protein synthesis”, the MIC (B. cereus 97/4144) is given as 4 µg/mL (≈ 9 µM) and the susceptibility in words (S. aureus RN4250) is given as “resistant”. The MIC (S. aureus RN4250; Staphylococcus aureus, RN4250) was 4 µg/mL (≈ 9 µM), the MIC (B. anthracis Vollum1B) was 0.06 µg/mL (≈ 0.135 µM) and the MIC (B. anthracis V770) was 1 µg/mL (≈ 2.25 µM). It also gave an MIC (B. cereus 95/3032) of at most 0.06 µg/mL, an MIC (S. aureus MRSA5) of 4 µg/mL (≈ 9 µM) and an MIC (E. faecium 494) of 16 µg/mL (≈ 36 µM). For the same molecule, the MIC (E. faecalis 29212) was 4 µg/mL (≈ 9 µM), the susceptibility in words (B. anthracis V770NPIR) was “fully doxycycline-resistant” and the MIC50 (B. anthracis panel) was 0.06 µg/mL (≈ 0.135 µM). For the same molecule, the MIC90 (B. anthracis panel) was 0.25 µg/mL (≈ 0.563 µM), the MIC (B. cereus 98/2658) was at most 0.06 µg/mL and the MIC (S. pneumoniae 157E [4]) was 0.06 µg/mL (≈ 0.135 µM). It also gave an IC50 ([5]; read-out: Protein synthesis IC50) of under 0.03 µg/mL, an IC90 ([5]; read-out: Protein synthesis IC90) of under 0.03 µg/mL and an MIC (B. cereus 98/2620) of 4 µg/mL (≈ 9 µM). For the same molecule, the MIC (S. aureus RN450) was 0.06 µg/mL (≈ 0.135 µM), the IC50 ([6]; read-out: Peptidoglycan synthesis IC50) was 3.9 µg/mL (≈ 8.78 µM) and the IC90 ([6]; read-out: Peptidoglycan synthesis IC90) was 18.2 µg/mL (≈ 41 µM). For the same molecule, the PD50 (S. pneumoniae PBS1339; iv) was 7.1 mg/kg, the PD50 (S. pneumoniae PBS1339; po) was 35.3 mg/kg and the “effect on reactivity of nucleotides within the 16S rRNA (chemical footprint)” value (16S rRNA) was “affect the reactivity of nucleotides”. It also gave an MIC (S. pneumoniae 700905 [2]) of 4 µg/mL (≈ 9 µM), an MIC (B. anthracis Ame) of under 0.03 µg/mL and an MIC (B. anthracis Sterne) of 0.12 µg/mL (≈ 0.27 µM).
